Results on 58 compounds are retold here after patent US20160039825A1 (BIOGEN MA INC., priority 2013, published 2016).

Molecules are shown by their SMILES.

The target in the experiment is T1, Human ATX protein (Homo sapiens, UniProt Q13822).
T1 construct: made in house
In words: Autotaxin (ATX) assay, FRET with FS-3 substrate. The class given is biochemical. Conditions: upper bound bins (no greater than 100, 250 or 500 nM); FS-3 2 μM, ATX 1.0 μg/mL. An outline of the steps:
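In-house human ATX (1.0 μg/mL final) was preincubated with compound for 30 min at room temperature in Tris buffer pH 7.4 with NaCl, KCl, CaCl2, MgCl2 and 1 mg/mL fatty acid-free BSA. FS-3 (2 μM final) was added and the plate shaken 2 h at room temperature in the dark. Fluorescence was read at ex 485/em 538 nm.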
For the compound `CC1(C)CN(C(=O)c2cc3n(n2)CCN(C(=O)OCc2cc(C(F)(F)F)cc(C(F)(F)F)c2)C3)CCN1` [Example 436], the half-inhibitory concentration (IC50) was at most 100 nM.
`O=C(OCc1cc(C(F)(F)F)cc(C(F)(F)F)c1)N1CCn2nc(C(=O)N3CC4CCC(C3)N4)cc2C1` [Example 437] came in with an IC50 of at most 100 nM.
`CNC1CN(C(=O)c2cc3n(n2)CCN(C(=O)OCc2cc(C(F)(F)F)cc(C(F)(F)F)c2)C3)C1` [Example 438] came in with a half-inhibitory concentration (IC50) of at most 100 nM.
Turning to `CC1CN(C(=O)c2cc3n(n2)CCN(C(=O)OCc2cc(C(F)(F)F)cc(C(F)(F)F)c2)C3)CCN1` (stereo not shown) [Example 439], the IC50 is at most 100 nM.
As for `CC1(C)CNCCN1C(=O)c1cc2n(n1)CCN(C(=O)OCc1cc(C(F)(F)F)cc(C(F)(F)F)c1)C2` [Example 441], the concentration for half-maximal inhibition (IC50) is at most 100 nM.
Compound `O=C(OCc1cc(Cl)cc(C(F)(F)F)c1)N1CCn2nc(C(=O)N3CC4CNCC4C3)cc2C1` (stereo not shown) [Example 442] displayed a 50% inhibitory concentration (IC50) of at most 100 nM.
To `O=C(OCc1cc(C(F)(F)F)cc(C(F)(F)F)c1)N1CCn2nc(C3CCNCC3)cc2C1` [Example 443] belongs at most 100 nM; to `O=C(OCc1cc(C(F)(F)F)cc(C(F)(F)F)c1)N1CCn2nc(C3=CCCNC3)cc2C1` [Example 444], at most 100 nM; to `CC(c1cc2n(n1)CCCN(C(=O)OCc1cc(Cl)cc(Cl)c1)C2)N1CCCCC1` (stereo not shown) [Example 446], at most 250 nM.
Under `CC(c1cc2n(n1)CCN(C(=O)OCc1cc(C(F)(F)F)cc(C(F)(F)F)c1)C2)N1CCN(C(=O)OC(C)(C)C)CC1` (stereo not shown) [Example 448] stands at most 100 nM; under `CC(c1cc2n(n1)CCN(C(=O)OCc1cc(C(F)(F)F)cc(C(F)(F)F)c1)C2)N1CC2CCC(C1)N2C(=O)OC(C)(C)C` (stereo not shown) [Example 449], at most 100 nM.
Under `CC(c1cc2n(n1)CCN(C(=O)OCc1cc(C(F)(F)F)cc(C(F)(F)F)c1)C2)N1C2CCC1CN(C(=O)OC(C)(C)C)C2` (stereo not shown) [Example 450] stands at most 100 nM; under `CC(c1cc2n(n1)CCCN(C(=O)OCc1cc(Cl)cc(Cl)c1)C2)N1C2CCCC1CCC2` (stereo not shown) [Example 453], at most 250 nM; under `CC(c1cc2n(n1)CCCN(C(=O)OCc1cc(Cl)cc(Cl)c1)C2)N1CCCC1` (stereo not shown) [Example 454], at most 500 nM.
`CC(c1cc2n(n1)CCN(C(=O)OCc1cc(C(F)(F)F)cc(C(F)(F)F)c1)C2)N1CCC(C(=O)O)CC1` (stereo not shown) [Example 456] came in with an IC50 of at most 250 nM.
Under `CC(c1cc2n(n1)CCN(C(=O)OCc1cc(C(F)(F)F)cc(C(F)(F)F)c1)C2)N1CCC(O)CC1` (stereo not shown) [Example 457] stands at most 250 nM.
To `CC(c1cc2n(n1)CCN(C(=O)OCc1cc(C(F)(F)F)cc(C(F)(F)F)c1)C2)N1CCCCC1` (stereo not shown) [Example 458] belongs at most 100 nM; to `O=C(NCCO)c1cc2n(n1)CCN(C(=O)OCc1cc(C(F)(F)F)cc(C(F)(F)F)c1)C2` [Example 460, 3,5-bis(trifluoromethyl)benzyl 2-((2-hydroxyethyl)carbamoyl)-6,7-dihydropyrazolo[1,5-a]pyrazine-5(4H)-carboxylate], at most 100 nM; to `CC(C)(C)OC(=O)N1CCN(C(=O)c2cc3n(n2)CCN(C(=O)OCc2cc(C(F)(F)F)cc(C(F)(F)F)c2)C3)C(C)(C)C1` [Example 462], at most 100 nM.
With `CC1CN(C(=O)OC(C)(C)C)CCN1C(=O)c1cc2n(n1)CCN(C(=O)OCc1cc(C(F)(F)F)cc(C(F)(F)F)c1)C2` (stereo not shown) [Example 464], the half-inhibitory concentration (IC50) is at most 100 nM.
Compound `CC(C)(C)OC(=O)N1CCN(C(=O)c2cc3n(n2)CCN(C(=O)OCc2cc(C(F)(F)F)cc(C(F)(F)F)c2)C3)CC1(C)C` [Example 466] showed an IC50 of at most 100 nM.
To `CC1CN(C(=O)c2cc3n(n2)CCN(C(=O)OCc2cc(C(F)(F)F)cc(C(F)(F)F)c2)C3)CCN1C(=O)OC(C)(C)C` (stereo not shown) [Example 467] belongs at most 100 nM; to `CC1CN(C(=O)c2cc3n(n2)CCN(C(=O)OCc2cc(C(F)(F)F)cc(C(F)(F)F)c2)C3)CC(C)N1C(=O)OC(C)(C)C` (stereo not shown) [Example 469], at most 100 nM.
To `CC(C)(C)OC(=O)N1C2CCC1CN(C(=O)c1cc3n(n1)CCN(C(=O)OCc1cc(C(F)(F)F)cc(C(F)(F)F)c1)C3)C2` [Example 470] belongs at most 100 nM; to `CC(C)(C)OC(=O)N1CCN(C(=O)c2cc3n(n2)CCN(C(=O)OCc2cc(Cl)cc(C(F)(F)F)c2)C3)CC1` [Example 471], at most 100 nM; to `CC(CO)NC(=O)c1cc2n(n1)CCN(C(=O)OCc1cc(C(F)(F)F)cc(C(F)(F)F)c1)C2` (stereo not shown) [Example 472], at most 100 nM.
To `CC(C)(C)OC(=O)N1CC2CCC(C1)N2C(=O)c1cc2n(n1)CCN(C(=O)OCc1cc(C(F)(F)F)cc(C(F)(F)F)c1)C2` [Example 474] belongs at most 100 nM; to `CC(C)(C)OC(=O)N1CCN(C(=O)c2cc3n(n2)CCN(C(=O)OCc2cc(Cl)cc(C(F)(F)F)c2)C3)C(C)(C)C1` [Example 475], at most 100 nM; to `CC1CN(C(=O)OC(C)(C)C)CC(C)N1C(=O)c1cc2n(n1)CCN(C(=O)OCc1cc(C(F)(F)F)cc(C(F)(F)F)c1)C2` (stereo not shown) [Example 476], at most 100 nM.
As to `CC(C)(C)OC(=O)N1C2CCC1CN(C(=O)c1cc3n(n1)CCN(C(=O)OCc1cc(Cl)cc(C(F)(F)F)c1)C3)C2` [Example 478], the IC50 is at most 100 nM.
To `O=C(OCc1cc(Cl)cc(C(F)(F)F)c1)N1CCn2nc(C(=O)N3CCC(O)CC3)cc2C1` [Example 479] belongs at most 100 nM.
To `CN(C)C(=O)c1cc2n(n1)CCN(C(=O)OCc1cc(C(F)(F)F)cc(C(F)(F)F)c1)C2` [Example 480] belongs at most 250 nM; to `CCCNC(=O)c1cc2n(n1)CCN(C(=O)OCc1cc(C(F)(F)F)cc(C(F)(F)F)c1)C2` [Example 481], at most 100 nM; to `CNC(=O)c1cc2n(n1)CCN(C(=O)OCc1cc(C(F)(F)F)cc(C(F)(F)F)c1)C2` [Example 482], at most 100 nM.
To `O=C(OCc1cc(C(F)(F)F)cc(C(F)(F)F)c1)N1CCn2nc(C(=O)N3CC(O)C3)cc2C1` [Example 483] belongs at most 100 nM; to `O=C(OCc1cc(C(F)(F)F)cc(C(F)(F)F)c1)N1CCn2nc(C(=O)N3CCC3)cc2C1` [Example 485], at most 100 nM.
For the compound `CC(C)(C)OC(=O)N1CCN(C(=O)c2cc3n(n2)CCN(C(=O)OCc2cc(C(F)(F)F)cc(C(F)(F)F)c2)C3)CC1` [Example 486], the concentration for half-maximal inhibition (IC50) is at most 100 nM.
`O=C(OCc1cc(C(F)(F)F)cc(C(F)(F)F)c1)N1CCn2nc(C(=O)N3C4CCCC3CCC4)cc2C1` [Example 487]: the concentration for half-maximal inhibition (IC50) is at most 100 nM.
Compound `CC1CCN(C(=O)c2cc3n(n2)CCN(C(=O)OCc2cc(C(F)(F)F)cc(C(F)(F)F)c2)C3)CC1` [Example 488] displayed a 50% inhibitory concentration (IC50) of at most 100 nM.
To `CN1CCN(C(=O)c2cc3n(n2)CCN(C(=O)OCc2cc(C(F)(F)F)cc(C(F)(F)F)c2)C3)CC1` [Example 489] belongs at most 100 nM.
With `O=C(OCc1cc(C(F)(F)F)cc(C(F)(F)F)c1)N1CCn2nc(C(=O)N3CCC(O)CC3)cc2C1` [Example 490], the 50% inhibitory concentration (IC50) was at most 100 nM.
On to `NC(=O)c1cc2n(n1)CCN(C(=O)OCc1cc(C(F)(F)F)cc(C(F)(F)F)c1)C2` [Example 491], for which the IC50 is at most 100 nM.
Under `O=C(NC1CCCCC1)c1cc2n(n1)CCN(C(=O)OCc1cc(C(F)(F)F)cc(C(F)(F)F)c1)C2` [Example 492] stands at most 100 nM; under `O=C(OCc1cc(C(F)(F)F)cc(C(F)(F)F)c1)N1CCn2nc(C(=O)N3CCCCC3)cc2C1` [Example 493], at most 100 nM.
Under `COC(=O)C1CCN(C(=O)c2cc3n(n2)CCN(C(=O)OCc2cc(C(F)(F)F)cc(C(F)(F)F)c2)C3)CC1` [Example 494] stands at most 100 nM; under `CN1CCN(C(=O)c2cc3n(n2)CCN(C(=O)OCc2cc(Cl)cc(C(F)(F)F)c2)C3)C(C)(C)C1` [Example 495], at most 100 nM.
To `O=C(OCc1cc(C(F)(F)F)cc(C(F)(F)F)c1)N1CCn2nc(-c3cccnc3)cc2C1` [Example 496, 3,5-bis(trifluoromethyl)benzyl 2-(pyridin-3-yl)-6,7-dihydropyrazolo[1,5-a]pyrazine-5(4H)-carboxylate] belongs at most 100 nM; to `CC(C)(C)OC(=O)N1CC=C(c2cc3n(n2)CCN(C(=O)OCc2cc(C(F)(F)F)cc(C(F)(F)F)c2)C3)CC1` [Example 497], at most 100 nM.
For the compound `CC(C)(C)OC(=O)N1CCC=C(c2cc3n(n2)CCN(C(=O)OCc2cc(C(F)(F)F)cc(C(F)(F)F)c2)C3)C1` [Example 498], the IC50 was at most 100 nM.
With `O=C(OCc1cc(C(F)(F)F)cc(C(F)(F)F)c1)N1CCn2nc(-c3ccncc3)cc2C1` [Example 499], the half-maximal inhibitory concentration (IC50) is at most 100 nM.
Under `O=C(OCc1cc(C(F)(F)F)cc(C(F)(F)F)c1)N1CCn2nc(-c3cn[nH]c3)cc2C1` [Example 500] stands at most 100 nM; under `O=C(NCC1CC1)c1cc2n(n1)CCCN(C(=O)OCc1cc(C(F)(F)F)cc(C(F)(F)F)c1)C2` [Example 502], at most 100 nM.
Compound `O=C(NC1CC1)c1cc2n(n1)CCCN(C(=O)OCc1cc(C(F)(F)F)cc(C(F)(F)F)c1)C2` [Example 503] returned an IC50 of at most 100 nM.
`O=C(NC1CC(O)C1)c1cc2n(n1)CCCN(C(=O)OCc1cc(C(F)(F)F)cc(C(F)(F)F)c1)C2` (stereo not shown) [Example 504] yielded a concentration for half-maximal inhibition (IC50) of at most 100 nM.
As for `O=C(NC1COC1)c1cc2n(n1)CCCN(C(=O)OCc1cc(C(F)(F)F)cc(C(F)(F)F)c1)C2` [Example 505], the half-inhibitory concentration (IC50) was at most 100 nM.
As for `O=C(NC1CCOCC1)c1cc2n(n1)CCCN(C(=O)OCc1cc(C(F)(F)F)cc(C(F)(F)F)c1)C2` [Example 506], the half-inhibitory concentration (IC50) is at most 100 nM.
To `O=C(O)c1nn2c(c1F)CN(C(=O)OCc1cc(C(F)(F)F)cc(C(F)(F)F)c1)CCC2` [Example 507, 5-(((3,5-bis(Trifluoromethyl)benzyl)oxy)carbonyl)-3-fluoro-5,6,7,8-tetrahydro-4H-pyrazolo[1,5-a][1,4]diazepine-2-carboxylic acid] belongs at most 100 nM; to `CC(NC1CC1)c1cc2n(n1)CCCN(C(=O)OCc1cc(C(F)(F)F)cc(C(F)(F)F)c1)C2` (stereo not shown) [Example 508], at most 100 nM.
